Assay results as given in paper PMC6476959, “Novel 3,4-Dihydroisocoumarins Inhibit Human P-gp and BCRP in Multidrug Resistant Tumors and Demonstrate Substrate Inhibition of Yeast Pdr5” (Frontiers in Pharmacology, 2019).
“And” between values parts separate entries of the source, which are not always exact repeats. Identical values can stand only once. “Also recorded” adds a separate entry of the source.

Assays:
BCRP = biological target: T1, BCRP (Homo sapiens, UniProt Q9UNQ0); experiment: BCRP transport assay (Hoechst 33342) in MCF-7/MX cells; assay type: cell-based
T1 construct: endogenous in cells; host or cells: MCF-7/MX human breast adenocarcinoma cells (mitoxantrone-selected)
T1 sequence (Q9UNQ0 1-655): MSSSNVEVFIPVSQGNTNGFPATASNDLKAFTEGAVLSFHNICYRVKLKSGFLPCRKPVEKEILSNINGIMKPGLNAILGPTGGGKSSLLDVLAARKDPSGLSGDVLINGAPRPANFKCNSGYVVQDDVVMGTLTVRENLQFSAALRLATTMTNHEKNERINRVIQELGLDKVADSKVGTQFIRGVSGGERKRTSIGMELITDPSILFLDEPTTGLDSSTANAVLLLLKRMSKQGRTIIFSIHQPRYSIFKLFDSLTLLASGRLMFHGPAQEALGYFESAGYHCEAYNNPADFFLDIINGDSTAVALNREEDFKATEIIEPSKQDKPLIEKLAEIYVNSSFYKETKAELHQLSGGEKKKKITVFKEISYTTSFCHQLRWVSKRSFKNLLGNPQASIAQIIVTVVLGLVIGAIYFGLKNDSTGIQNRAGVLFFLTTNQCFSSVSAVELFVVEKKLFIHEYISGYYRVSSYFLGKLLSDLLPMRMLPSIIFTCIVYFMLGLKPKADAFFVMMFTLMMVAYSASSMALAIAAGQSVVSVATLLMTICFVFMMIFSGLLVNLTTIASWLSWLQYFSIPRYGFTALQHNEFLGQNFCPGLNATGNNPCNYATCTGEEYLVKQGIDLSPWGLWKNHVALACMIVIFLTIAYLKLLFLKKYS
Protocol: Breast cancer resistance protein transport activity was determined in the BCRP-expressing MCF-7/MX cell line. Hoechst 33342 was applied as transporter substrate and 1 μM Ko143 as positive control or 0.5% DMSO as negative control and the assay was performed according to the P-gp assay. Fluorescence was measured at an excitation wavelength of 355 nm and emission wavelength of 460 nm. The transport activity of BCRP was analyzed by determining the plateau of the fluorescence-time curve by using non-linear regression (one-phase exponential fit). Normalization of the data to Ko143 (100% inhibition) and DMSO (0% inhibition) was performed.

HCT-15 cells = experiment: CellTiter-Glo cell viability assay (cytotoxicity), HCT-15; assay type: cell-based; settings: Homo sapiens, 48 h, P-gp expressing, mean ± SEM
Protocol: (§1) The human lung adenocarcinoma cell line A549 was cultured in DMEM medium supplemented with 10% fetal bovine serum (FBS), 100 U/mL penicillin and 100 μg/mL streptomycin. P-gp-expressing human colon adenocarcinoma cells HCT-15 were cultured in RPMI 1640 medium supplemented with 10% FBS, 100 U/mL penicillin and 100 μg/mL streptomycin. BCRP-expressing MCF-7/MX human breast adenocarcinoma cells were cultured in DMEM medium supplemented with 10% FBS, 100 U/mL penicillin and 100 μg/mL streptomycin. MRP1-expressing H69AR human small cell lung cancer cells were cultured in RPMI 1640 medium (ATCC modification) supplemented with 20% FBS, 100 U/mL penicillin and 100 μg/mL streptomycin. All cancer cell lines employed have been systematically characterized regarding their respective ABC transporter expression profile ([Sachs et al., 2019]).
(§2) Cytotoxic activity of test compounds was analyzed after 48 h using the CellTiter-Glo Luminescent Cell Viability Assay published previously ([Weber et al., 2017]) in 384-well plates with the following cell densities: A549, MCF-7/MX: 2 × 10^3 cells/well; HCT-15: 3 × 10^3 cells/well; H69AR: 5 × 10^3 cells/well. Pipetting was conducted with the CyBi-Well 96-channel simultaneous pipettor (Analytik Jena AG, Jena, Germany). For generation of dose-response curves and calculation of IC50 values, the four-parameter logistic model was applied.

A549 cells = experiment: CellTiter-Glo cell viability assay (cytotoxicity), A549; assay type: cell-based, human; settings: Homo sapiens, A549; 48 h, mean ± SEM
Protocol: as §1, §2

P-gp = biological target: T2, P-gp (Homo sapiens, UniProt P08183); experiment: P-gp transport assay (calcein-AM) in HCT-15 cells; assay type: cell-based
T2 construct: endogenous in cells; host or cells: HCT-15 human colon adenocarcinoma cells
T2 sequence (P08183 whole entry): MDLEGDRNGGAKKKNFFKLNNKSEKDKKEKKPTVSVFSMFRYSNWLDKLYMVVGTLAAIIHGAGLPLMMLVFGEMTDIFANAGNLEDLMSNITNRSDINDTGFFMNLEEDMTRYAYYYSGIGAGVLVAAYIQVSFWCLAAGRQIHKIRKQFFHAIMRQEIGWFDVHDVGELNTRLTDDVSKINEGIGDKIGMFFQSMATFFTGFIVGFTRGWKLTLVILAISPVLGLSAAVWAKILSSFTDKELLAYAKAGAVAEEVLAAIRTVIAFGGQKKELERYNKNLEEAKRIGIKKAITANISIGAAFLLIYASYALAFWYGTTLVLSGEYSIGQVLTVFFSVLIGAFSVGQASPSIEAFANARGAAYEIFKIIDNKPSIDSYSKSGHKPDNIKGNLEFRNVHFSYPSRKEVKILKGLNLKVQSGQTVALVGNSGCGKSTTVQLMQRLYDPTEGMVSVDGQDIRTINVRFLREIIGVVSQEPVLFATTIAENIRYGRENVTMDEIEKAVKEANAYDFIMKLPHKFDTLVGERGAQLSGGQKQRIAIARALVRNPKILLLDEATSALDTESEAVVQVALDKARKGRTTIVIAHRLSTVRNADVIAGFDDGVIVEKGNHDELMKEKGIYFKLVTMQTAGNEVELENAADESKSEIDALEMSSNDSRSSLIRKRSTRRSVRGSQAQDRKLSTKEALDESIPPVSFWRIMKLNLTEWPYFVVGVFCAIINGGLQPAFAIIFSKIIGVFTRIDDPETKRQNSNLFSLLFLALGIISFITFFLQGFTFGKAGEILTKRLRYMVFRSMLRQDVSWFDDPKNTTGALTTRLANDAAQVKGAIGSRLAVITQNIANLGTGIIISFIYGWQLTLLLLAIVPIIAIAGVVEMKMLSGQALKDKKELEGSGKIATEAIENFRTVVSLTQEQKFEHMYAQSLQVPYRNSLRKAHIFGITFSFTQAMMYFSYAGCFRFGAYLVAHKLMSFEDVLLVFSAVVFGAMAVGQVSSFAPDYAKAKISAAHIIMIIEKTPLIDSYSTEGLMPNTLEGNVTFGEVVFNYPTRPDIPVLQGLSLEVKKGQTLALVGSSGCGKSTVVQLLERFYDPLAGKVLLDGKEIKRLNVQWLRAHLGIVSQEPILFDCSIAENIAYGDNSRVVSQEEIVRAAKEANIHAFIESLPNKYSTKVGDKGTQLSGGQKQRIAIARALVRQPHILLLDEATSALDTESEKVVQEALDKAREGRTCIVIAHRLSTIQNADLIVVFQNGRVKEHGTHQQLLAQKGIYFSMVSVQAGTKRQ
Protocol: The transport of calcein-AM by P-gp and its modulation by test compounds was analyzed in the P-gp-expressing HCT-15 cell line. 5 × 10^4 cells were seeded in black 96-well plates and incubated at 37°C and 5% CO2 for 24 h. The culture medium was removed and replaced by Hank’s balanced salt solution supplemented with 10 mM HEPES. Test compounds, 2.5 μM PSC833 (positive control) or 0.5% DMSO (negative control) were added in triplicates and incubated for 30 min at 37°C and 5% CO2. The substrate calcein-AM was added (final concentration 0.5 μM) and the fluorescence (excitation 485 nm, emission 520 nm) was measured over 3 h with the Infinite m1000 pro microplate reader (Tecan Group AG, Männedorf, Switzerland) at 37°C. The transport activity of P-gp was analyzed by determining the slope of the linear part of the fluorescence-time curve (0–30 min) using linear regression. Normalization of the data to PSC833 (100% inhibition) and DMSO (0% inhibition) was performed.

H69AR cells = experiment: CellTiter-Glo cell viability assay (cytotoxicity), H69AR; assay type: cell-based; settings: Homo sapiens, 48 h, MRP1-expressing, mean ± SEM
Protocol: as §1, §2

MCF-7/MX cells = experiment: CellTiter-Glo cell viability assay (cytotoxicity), MCF-7/MX; assay type: cell-based; settings: Homo sapiens, MCF7/MX; 48 h, BCRP-expressing, mean ± SEM
Protocol: as §1, §2

Pdr5 [1] = biological target: T3, Pdr5 (Saccharomyces cerevisiae, UniProt P33302); experiment: Pdr5 ATPase assay (oligomycin-sensitive) in plasma membrane preparations; assay type: biochemical; settings: highest concentrations (10 mM), in comparison to Pdr5 WT in the absence of any compound
T3 construct: effect on (A) the transport activity of Pdr5 WT and (B) their effect on the ATPase activity; made in house; host or cells: S. cerevisiae YRE1001 (pdr1-3 background), isolated plasma membranes
T3 sequence (P33302 whole entry): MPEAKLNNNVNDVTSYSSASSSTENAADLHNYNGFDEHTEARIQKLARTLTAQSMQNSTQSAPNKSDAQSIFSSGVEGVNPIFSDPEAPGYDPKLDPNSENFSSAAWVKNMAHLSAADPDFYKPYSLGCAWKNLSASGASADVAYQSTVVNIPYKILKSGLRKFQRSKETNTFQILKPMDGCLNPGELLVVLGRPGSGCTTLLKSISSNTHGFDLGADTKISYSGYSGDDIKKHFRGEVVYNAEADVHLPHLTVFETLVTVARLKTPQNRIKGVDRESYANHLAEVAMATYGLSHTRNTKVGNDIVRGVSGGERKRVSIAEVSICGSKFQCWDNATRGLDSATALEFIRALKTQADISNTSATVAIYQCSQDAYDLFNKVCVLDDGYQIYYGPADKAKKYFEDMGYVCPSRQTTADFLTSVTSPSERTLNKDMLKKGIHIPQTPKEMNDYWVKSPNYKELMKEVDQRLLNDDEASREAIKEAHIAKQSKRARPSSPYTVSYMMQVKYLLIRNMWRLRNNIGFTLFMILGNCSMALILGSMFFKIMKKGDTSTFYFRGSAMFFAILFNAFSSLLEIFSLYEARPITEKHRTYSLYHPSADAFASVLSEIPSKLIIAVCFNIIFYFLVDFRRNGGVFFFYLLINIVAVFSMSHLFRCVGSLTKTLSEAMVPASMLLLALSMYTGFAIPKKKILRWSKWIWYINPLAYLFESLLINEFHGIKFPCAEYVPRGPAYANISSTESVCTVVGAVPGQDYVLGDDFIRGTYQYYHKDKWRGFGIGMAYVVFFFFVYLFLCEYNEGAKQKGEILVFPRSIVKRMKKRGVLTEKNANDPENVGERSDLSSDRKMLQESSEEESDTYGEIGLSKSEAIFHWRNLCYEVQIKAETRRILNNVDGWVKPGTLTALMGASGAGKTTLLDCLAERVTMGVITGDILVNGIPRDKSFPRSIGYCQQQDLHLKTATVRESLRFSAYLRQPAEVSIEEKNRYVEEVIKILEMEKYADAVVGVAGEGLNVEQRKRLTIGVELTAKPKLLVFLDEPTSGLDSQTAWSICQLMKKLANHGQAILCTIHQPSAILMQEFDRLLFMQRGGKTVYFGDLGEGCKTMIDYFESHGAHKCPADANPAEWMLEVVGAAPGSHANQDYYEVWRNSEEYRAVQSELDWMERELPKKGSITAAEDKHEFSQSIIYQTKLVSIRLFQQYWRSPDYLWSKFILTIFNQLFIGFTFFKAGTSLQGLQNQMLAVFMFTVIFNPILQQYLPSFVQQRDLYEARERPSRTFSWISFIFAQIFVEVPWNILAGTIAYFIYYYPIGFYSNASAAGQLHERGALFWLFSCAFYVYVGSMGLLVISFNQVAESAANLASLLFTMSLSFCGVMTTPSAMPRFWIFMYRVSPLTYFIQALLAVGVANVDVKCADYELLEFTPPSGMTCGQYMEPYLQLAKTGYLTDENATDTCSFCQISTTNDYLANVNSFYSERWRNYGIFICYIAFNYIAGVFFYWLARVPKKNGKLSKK
Protocol: (§3) Saccharomyces cerevisiae cells expressing Pdr5 WT or the E1036Q (EQ) mutant were cultured to an OD600 of 1.5 in YPD-media at 25°C. The nitrogen source was replenished by addition of a 10th volume of 5x YP (50 g/l yeast extract, 100 g/l peptone). The cells were grown to an OD of 3.5 and harvested (5000 ×g at 4°C for 15 min). The isolation of Pdr5 containing PMs was performed as described ([Kolaczkowski et al., 1996]; [Ernst et al., 2008]).
Oligomycin (OM)-sensitive ATPase activity was measured from 0.8 μg PM containing Pdr5 incubated with 2 mM ATP, 5 mM MgCl2 in 270 mM TRIS-glycine buffer (pH 9.5) and 2.5 μl of the test compounds or DMSO as a control in a total volume of 100 μl. To reduce the background activities, 0.2 mM ammonium molybdate, 10 mM NaN3 and 50 mM KNO3, respectively, were added ([Dufour et al., 1988]; [Goffeau and Dufour, 1988]). In a second assay, OM (20 μg/ml) was added to an otherwise identical setup. After incubation at 30°C for 20 min, the reaction was stopped by adding 25 μl of the reaction to 175 μl 40 mM H2SO4. The amount of released inorganic phosphate was determined by a colometric assay in 96-well plates ([Goffeau and Dufour, 1988]; [Decottignies et al., 1994]; [Wada et al., 2002]). The difference of both assays ( ± OM) corresponds to the specific ATPase activity of Pdr5 ([Ernst et al., 2008]).

Pdr5 [2] = biological target: T3, Pdr5; experiment: Pdr5 transport assay (R6G) in plasma membrane preparations; assay type: biochemical; design: R6G transport activity of Pdr5 WT inhibited to (initial screen): dose or concentration left out as unconfirmed; settings: for R6G transport activity of Pdr5 WT inhibited to (initial screen): relative to Pdr5 WT without compound
Protocol: as §3
Active transport of R6G was measured according to the protocol developed by [Kolaczkowski et al. (1996)], using a Tecan Infinite 200 pro reader (Tecan Group AG, Männedorf, Switzerland). 6 μg of the isolated PM containing Pdr5 were resuspended in 200 μl of the transport buffer (50 mM HEPES, pH 7.0, 5 mM MgCl2, 10 mM NaN3, and 150 nM R6G) and incubated in a black 96-well plate at 30°C. 5 μl of the test compound were added at the indicated concentrations. Active transport was initiated by the addition of 10 μl 200 mM ATP and fluorescence intensity was recorded in 15 s-intervals for 20 min (excitation wavelength at 524 nm, emission wavelength at 558 nm, number of flashes 30, integration time 2000 μs). IC50 determination was performed with a serial dilution of the test compounds.

[3] = system: P-gp expressing HCT-15 cells; experiment: Sensitization of HCT-15 cells to doxorubicin (co-treatment, cell viability); assay type: cell-based, human
Protocol: as §2
(§4) The ability of identified inhibitors of P-gp and BCRP to sensitize HCT-15 or MCF-7/MX cells to chemotherapy was analyzed by co-treatment with test compounds and doxorubicin or mitoxantrone, respectively. Cells were incubated with a serial dilution of the chemotherapeutic drug alone or in combination with fixed concentrations of the test compounds or positive controls (2.5 μM PSC833 and 1 μM Ko143, respectively). Fold change of drug IC50 was calculated with the formula IC50 (drug alone)/IC50 (drug with modulator).

[4] = system: BCRP-expressing MCF-7/MX cells; experiment: Sensitization of MCF-7/MX cells to mitoxantrone (co-treatment, cell viability); assay type: cell-based, human
Protocol: as §2, §4

[5] = human, P-gp-expressing HCT-15 cells, probe calcein-AM (0.5 μM), normalized to 2.5 μM PSC833 (100%) and DMSO (0%), read-out: Relative inhibition of P-gp

SMILES | Inhibition of BCRP (in words) (BCRP) | IC50 (HCT-15 cells) [µM] | IC50 (A549 cells) [µM] | IC50 (H69AR cells) [µM] | IC50 (MCF-7/MX cells) [µM] | ATPase activity of Pdr5 WT inhibited to (initial screen) (Pdr5 [1]) | further results
COc1cc2c(c(OC)c1)C(=O)OCC2 [Compound 14a] | did not inhibit BCRP | > 100 | > 100 | > 100 | > 100 | – | Relative inhibition of P-gp, span over the tested concentrations (P-gp; different concentrations, normalized to PSC833): up to 10%
COc1cc(O)c2c(c1)C[C@H](CCO)OC2=O [(R)-19a] | completely abolished inhibitory ability | > 100 | > 100 | > 100 | > 100 | nearly no effect; also recorded: no inhibition of the ATPase activity was observed | –
COc1cc(O)c2c(c1)C[C@@H](CCO[Si](C)(C)C(C)(C)C)OC2=O [(S)-19] | – | > 100 | 42 ± 3.9 | 86.8 ± 9.2 | 33.5 ± 7.5 | – | inhibition at 10 μM (P-gp; human, P-gp-expressing HCT-15 cells, probe calcein-AM (0.5 μM), 10 μM, normalized to 2.5 μM PSC833 (100%) and DMSO (0%), read-out: Relative inhibition of P-gp): 37.1 ± 2.9%; inhibition at 20 μM (P-gp; [5]): > 20%; IC50 (Pdr5 [2]): 5.3 ± 0.6 µM; R6G transport activity of Pdr5 WT inhibited to (initial screen) (Pdr5 [2]): inhibit the transport of R6G completely; also recorded: inhibit the transport activity of Pdr5 WT completely
COc1cccc2c1C(=O)c1c(O)c3c(c(O)c1C2=O)C[C@@](O)(C(=O)CO)C[C@@H]3O[C@H]1C[C@H](N)[C@H](O)[C@H](C)O1 [Doxorubicin, doxorubicin, reference compound] | – | – | – | – | – | – | IC50 ([3]; Homo sapiens, HCT-15, doxorubicin alone, 48 h): 8.5 ± 0.7 µM; Fold change of doxorubicin IC50 ([3]; doxorubicin alone (reference)): 1.00
O=C1c2c(O)ccc(O)c2C(=O)c2c(NCCNCCO)ccc(NCCNCCO)c21 [Mitoxantrone, mitoxantrone, reference compound] | – | – | – | – | – | – | IC50 ([4]; Homo sapiens, MCF7/MX, mitoxantrone alone, 48 h): 19.6 ± 2.4 µM; Fold change of mitoxantrone IC50 ([4]; mitoxantrone alone (reference)): 1.00
COc1cc(O)c2c(c1)C[C@@H](C)OC2=O [6-Methoxymellein (3), 6-methoxymellein] | no inhibitory activity could be observed | > 100 | > 100 | > 100 | > 100 | – | Inhibition of P-gp (in words) (P-gp): did not differ significantly from those of derivative 14; R6G transport activity of Pdr5 WT inhibited to (initial screen) (Pdr5 [2]; listed as 3): no effect; R6G transport activity of Pdr5 WT inhibited to (initial screen) (Pdr5 [2]; listed as 6-methoxymellein (3)): did not interfere with Pdr5-mediated R6G transport; ATPase activity of Pdr5 WT inhibited to (initial screen) (Pdr5 [1]; listed as 3): nearly no effect; ATPase activity of Pdr5 WT inhibited to (initial screen) (Pdr5 [1]; listed as 6-methoxymellein (3)): no inhibitory effect
COc1cc(O)c2c(c1)C[C@H](CCO[Si](C)(C)C(C)(C)C)OC2=O [(R)-19] | – | 57.1 ± 7.5 | 47.5 ± 3.2 | > 100 | 28.1 ± 0.7 | – | inhibition at 20 μM (P-gp; [5]): > 20%; IC50 (Pdr5 [2]): 26 ± 3.5 µM; R6G transport activity of Pdr5 WT inhibited to (initial screen) (Pdr5 [2]): inhibit the transport of R6G completely; also recorded: inhibit the transport activity of Pdr5 WT completely
COc1cc(O)c2c(=O)oc3ccccc3c2c1 [Compound 21] | – | > 50 | > 50 | > 50 | > 50 | 50% and 54% | Relative inhibition rate of P-gp (P-gp; highest concentration used): 20.0 ± 1.2%
COc1cc(O)c2c(c1)C[C@@H](CCO)OC2=O [(S)-19a] | completely abolished inhibitory ability | > 100 | > 100 | > 100 | 89.8 ± 4.9 | nearly no effect; also recorded: no inhibition of the ATPase activity was observed | –
